In the test the test system is tumor cells C26. The test is described as follows: MTT assay, in vitro cytotoxicity, 72 h incubation. It counts as cell-based. Here is the method:
In vitro cytotoxicity of CDDP, P(CA8-G)-CDDP and P(CA12-G)-CDDP was evaluated by using a MTT assay. To measure cytotoxicity, tumor cells C26 were separately incubated in a plate with different concentrations of CDDP, P(CA8-G)-CDDP and P(CA12-G)-CDDP. The duration of incubation was 72 h. […] With respect to FIG. 13, it is concluded that, loading of cisplatin into the P(CA8-G)-CDDP and P(CA12-G)-CDDP influences its cytotoxicity. […] According to the MTT assay measurements, IC50 doses of free cisplatin, P(CA8-G)-CDDP and P(CA12-G)-CDDP were calculated. IC50 dose is the concentrations of active ingredients necessary to inhibit the cell growth by 50%.
P(CA12-G)-CDDP was synthesized in the same manner as explained above. P(CA8-G)-CDDP and P(CA12-G)-CDDP were used for MTT assay measurements.
(Formazan colour is commonly taken as a measure of viable cells.)

Molecules are shown by their SMILES.

For orientation: IC50 means the concentration at which inhibition is half-maximal. A low value points to greater potency. `N.N.[Cl][Pt][Cl]` [CDDP, cis-dichlorodiammineplatinum (II)] gave a half-inhibitory concentration (IC50) of 37.9 µg/mL.

These data come from patent US20110159113A1, “HYPERBRANCHED POLYESTER AND A METHOD OF SYNTHESIZING A HYPERBRANCHED POLYESTER” (priority 2011, published 2011).
